The target of experiment [1] is T1, BCR-FMS BaF3 cells (Homo sapiens, UniProt P07333).
T1 construct: fused on or other part: P11274 (Breakpoint cluster region protein)
T1 sequence (P07333 582-910): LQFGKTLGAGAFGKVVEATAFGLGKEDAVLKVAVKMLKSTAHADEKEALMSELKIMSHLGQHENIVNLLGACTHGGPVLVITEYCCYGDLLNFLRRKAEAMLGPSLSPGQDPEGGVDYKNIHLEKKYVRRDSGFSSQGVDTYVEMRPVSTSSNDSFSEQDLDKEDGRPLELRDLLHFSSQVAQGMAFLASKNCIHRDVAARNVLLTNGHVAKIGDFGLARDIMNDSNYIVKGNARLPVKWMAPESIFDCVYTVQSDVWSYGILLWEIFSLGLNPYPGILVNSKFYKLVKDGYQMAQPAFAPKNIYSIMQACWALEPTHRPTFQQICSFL
The experiment in a line: BaF3 BCR-FMS cell proliferation assay (ATPlite). It is filed as cell-based. The conditions noted are these: read-out: Inhibition of Cell Proliferation IC50, BCR/BaF3 Fms. The essentials:
(§1)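 Cells are plated overnight: BaF3 at 10,000/well in G418 medium without WEHI/IL-3, MV-4-11 at 25,000/well in IMDM with 10% FBS. An 8-point 1:3 compound titration (10 μM top) is then added, and plates are incubated 3 days at 37 °C before ATPlite readout and IC50 determination.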

Experiment [2] addresses T2, BCR-KIT BaF3 cells (Homo sapiens, UniProt P10721).
T2 construct: fused on or other part: P11274 (Breakpoint cluster region protein)
The experiment in a line: BaF3 BCR-KIT cell proliferation assay (ATPlite). The following applies: read-out: Inhibition of Cell Proliferation IC50, BCR/BaF3 Kit. In kind it is cell-based. The procedure, abridged:
as §1

In experiment [3] the target is Fms kinase (Homo sapiens, UniProt P07333). The experiment in a line: Fms kinase biochemical activity assay (AlphaScreen, biotin-(E4Y)10 phosphorylation). The conditions noted are these: 100 μM ATP; read-out: Biochemical Inhibition IC50 Fms. The essentials:
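AlphaScreen read-out (PY20 acceptor, streptavidin donor beads, EDTA stop) of biotin-(E4Y)10 phosphorylation, with IC50 taken from the concentration–signal curve. Reaction: 30 nM substrate, 100 μM ATP, 1 ng/well Fms, Hepes pH 7.5 with Mg2+/Mn2+, 5% DMSO, 20 min at 30 °C.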
On the technique in general: In Alpha technology, singlet oxygen from a donor bead excites a nearby acceptor bead.

Structures are written as SMILES.

T2 sequence (P10721 589-937): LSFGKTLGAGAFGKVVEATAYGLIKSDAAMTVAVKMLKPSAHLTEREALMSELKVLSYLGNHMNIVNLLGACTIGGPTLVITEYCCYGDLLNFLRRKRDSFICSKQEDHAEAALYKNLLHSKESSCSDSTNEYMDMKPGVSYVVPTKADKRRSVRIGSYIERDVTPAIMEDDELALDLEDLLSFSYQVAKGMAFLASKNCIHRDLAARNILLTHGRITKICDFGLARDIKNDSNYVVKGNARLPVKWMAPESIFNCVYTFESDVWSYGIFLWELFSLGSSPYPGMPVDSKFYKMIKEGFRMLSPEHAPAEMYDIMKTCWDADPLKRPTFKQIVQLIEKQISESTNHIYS
Fms kinase, sequence (P07333 20-972): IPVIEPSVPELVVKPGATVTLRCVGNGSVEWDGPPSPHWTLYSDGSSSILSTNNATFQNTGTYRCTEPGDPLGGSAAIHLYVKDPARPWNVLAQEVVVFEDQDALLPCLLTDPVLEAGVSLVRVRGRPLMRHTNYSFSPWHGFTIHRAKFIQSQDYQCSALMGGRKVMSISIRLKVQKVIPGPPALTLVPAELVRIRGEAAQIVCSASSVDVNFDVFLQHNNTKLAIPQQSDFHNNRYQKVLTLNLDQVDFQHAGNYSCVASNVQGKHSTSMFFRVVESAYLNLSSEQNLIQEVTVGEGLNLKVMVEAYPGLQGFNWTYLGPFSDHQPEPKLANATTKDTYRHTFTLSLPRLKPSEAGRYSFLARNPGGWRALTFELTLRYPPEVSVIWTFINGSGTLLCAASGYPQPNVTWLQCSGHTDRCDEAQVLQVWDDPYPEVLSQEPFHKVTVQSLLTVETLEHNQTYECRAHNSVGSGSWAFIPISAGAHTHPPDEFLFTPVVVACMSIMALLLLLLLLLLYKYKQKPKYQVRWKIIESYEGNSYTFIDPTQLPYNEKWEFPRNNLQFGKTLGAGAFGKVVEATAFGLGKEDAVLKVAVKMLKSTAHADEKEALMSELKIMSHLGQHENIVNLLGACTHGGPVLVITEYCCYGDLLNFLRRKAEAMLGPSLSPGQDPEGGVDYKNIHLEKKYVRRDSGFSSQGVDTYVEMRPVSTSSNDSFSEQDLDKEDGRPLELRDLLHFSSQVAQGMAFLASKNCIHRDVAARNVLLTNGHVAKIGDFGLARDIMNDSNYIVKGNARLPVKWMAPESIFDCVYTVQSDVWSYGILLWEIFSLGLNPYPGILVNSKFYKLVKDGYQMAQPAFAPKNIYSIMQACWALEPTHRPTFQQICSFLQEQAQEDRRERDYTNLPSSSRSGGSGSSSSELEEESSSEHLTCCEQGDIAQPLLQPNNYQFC

In the case of `COc1ncnc2[nH]cc(Cc3ccc(Nc4ccc(C5CC5)nc4)nc3F)c12` [Compound P-4004, (6-Cyclopropyl-pyridin-3-yl)-[6-fluoro-5-(4-methoxy-7H-pyrrolo[2,3-d]pyrimidin-5-ylmethyl)-pyridin-2-yl]-amine], the IC50 in experiment [1] is less than 10 nM; in experiment [2], less than 100 nM; in experiment [3] it was less than 100 nM.
Regarding `Cc1ccc(Nc2ccc(Cc3c[nH]c4ncc(Cl)cc34)c(F)n2)cn1` [Compound P-3042, [5-(5-Chloro-1H-pyrrolo[2,3-b]pyridin-3-ylmethyl)-6-fluoro-pyridin-2-yl]-(6-methyl-pyridin-3-yl)-amine], the IC50 is less than 100 nM in experiment [1], less than 1000 nM in experiment [2] and less than 10 nM in experiment [3].
On the same counts, the results for `CCOc1ncnc2[nH]cc(Cc3ccc(Nc4ccc(Br)nc4)nc3F)c12` [Compound P-4020, (6-Bromo-pyridin-3-yl)-[5-(4-ethoxy-7H-pyrrolo[2,3-d]pyrimidin-5-ylmethyl)-6-fluoro-pyridin-2-yl]-amine] are less than 100 nM, less than 1000 nM and less than 10 nM.
`Cc1cnc2[nH]cc(Cc3cnc(Nc4cc(C(C)(C)C)n[nH]4)nc3)c2c1` [Compound P-3029, (5-tert-Butyl-2H-pyrazol-3-yl)-[5-(5-methyl-1H-pyrrolo[2,3-b]pyridin-3-ylmethyl)-pyrimidin-2-yl]-amine]: the IC50 is less than 100 nM in experiment [1], less than 1000 nM in experiment [2] and less than 100 nM in experiment [3].
As to `COc1ccc(Nc2ncc(Cc3c[nH]c4ncc(C)cc34)cn2)cn1` [Compound P-3020, (6-Methoxy-pyridin-3-yl)-[5-(5-methyl-1H-pyrrolo[2,3-b]pyridin-3-ylmethyl)-pyrimidin-2-yl]-amine], the IC50 in experiment [1] was less than 10 nM; in experiment [2] it was less than 100 nM; in experiment [3], less than 10 nM.
`Cc1cnc2[nH]cc(Cc3cnc(Nc4cc(C(F)(F)F)n[nH]4)nc3)c2c1` [Compound P-3037, [5-(5-Methyl-1H-pyrrolo[2,3-b]pyridin-3-ylmethyl)-pyrimidin-2-yl]-(5-trifluoromethyl-2H-pyrazol-3-yl)-amine]: the IC50 in experiment [1], in experiment [2] and in experiment [3] was more than 1000 nM in each case.
Take `CCOc1ccc(Nc2ccc(Cc3c[nH]c4ncnc(OCCOC)c34)c(F)n2)cn1` [Compound P-4008, (6-Ethoxy-pyridin-3-yl)-{6-fluoro-5-[4-(2-methoxy-ethoxy)-7H-pyrrolo[2,3-d]pyrimidin-5-ylmethyl]-pyridin-2-yl}-amine]: the IC50 was less than 10 nM in experiment [1], less than 1000 nM in experiment [2] and less than 10 nM in experiment [3].
Regarding `CCOc1ncnc2[nH]cc(C(=O)c3ccc(Nc4ccc(OC)nc4)nc3F)c12` [Compound P-4025, (4-Ethoxy-7H-pyrrolo[2,3-d]pyrimidin-5-yl)-[2-fluoro-6-(6-methoxy-pyridin-3-ylamino)-pyridin-3-yl]-methanone], the IC50 in experiment [1] was less than 100 nM; in experiment [2], more than 1000 nM; in experiment [3], less than 1000 nM.
Regarding `CCOc1ccc(Nc2ccc(C(=O)c3c[nH]c4ncnc(C5CC5)c34)c(F)n2)cn1` [Compound P-4027, (4-Cyclopropyl-7H-pyrrolo[2,3-d]pyrimidin-5-yl)-[6-(6-ethoxy-pyridin-3-ylamino)-2-fluoro-pyridin-3-yl]-methanone], the values for the IC50 in experiment [1], in experiment [2] and in experiment [3] were less than 100 nM, less than 1000 nM and less than 100 nM, respectively.
As for `CCOc1ccc(Nc2ccc(C(=O)c3c[nH]c4ncnc(C)c34)c(F)n2)cn1` [Compound P-4032, [6-(6-Ethoxy-pyridin-3-ylamino)-2-fluoro-pyridin-3-yl]-(4-methyl-7H-pyrrolo[2,3-d]pyrimidin-5-yl)-methanone], the IC50 was less than 100 nM in experiment [1], less than 1000 nM in experiment [2] and less than 100 nM in experiment [3].
